Experimental data reported in publication PMC5841303, “In silico screening for human norovirus antivirals reveals a novel non-nucleoside inhibitor of the viral polymerase” (Scientific Reports, 2018).

Tests used:
[1] = molecular target: human norovirus Sydney 2012 RdRp (Norovirus GII.4 (Norwalk virus, human norovirus), UniProt K4L8Z7); assay: Fluorescent de novo RdRp activity assay (PicoGreen, poly(C) template); assay type: biochemical
Experimental: The 62 compounds identified in silico were screened for inhibition of norovirus RdRp activity using an in vitro fluorescent, de novo RdRp assay. Compounds were tested at fixed concentrations of 10 µM and 100 µM, and compared to mock treated samples containing the vehicle only (0.5% DMSO [vol/vol]) (Fig. 4A,B). […] For certain compounds, significant insolubility was observed, coupled with either inherent fluorescence quenching (positive y-axis values on Fig. 4A,B) or enhancement of the fluorescence signal (negative y-axis values).
The newly synthesised compounds, including the re-prepared hit 13 and some synthesis intermediates (Table 1), were initially evaluated on norovirus Sydney 2012 RdRp activity in vitro using a quantitative fluorescent assay. Compounds were tested at a fixed concentration of 10 μM and compared to the relative activity of mock treated samples.
Recombinant calicivirus RdRps (GenBank accession numbers) norovirus GII.Pe/GII.4 Sydney 2012 (KT239579), MNV GV CW1 (DQ285629), RHDV Czech V351 (KF594473.1), and SaV GI.1 Mc114 (AY237422) were expressed and purified as described previously[60],[61]. RdRp resistance mutants were generated using the QuikChange site-directed mutagenesis kit (Agilent Technologies, Santa Clara, CA, USA) and confirmed by Sanger sequencing.
(§1) Fluorescent RdRp activity assays were carried out as previously described[14],[62]. Briefly, RdRp activity was quantified by monitoring the formation of double-stranded RNA (dsRNA) from a single stranded homopolymeric template, poly(C) (Sigma Aldrich, St Louis, MO, USA), using the fluorescent dye PicoGreen (Life Technologies, Carlsbad, CA, USA). RdRp assays were performed in 384-well plates, and each reaction mixture contained 400 ng enzyme, 45 µM GTP, 10 ng/µL poly(C) RNA, 2.5 mM MnCl2, 5 mM dithiothreitol, (DTT), 0.01% bovine serum albumin (BSA), and 0.005% Tween 20 in 20 mM Tris-HCl, pH 7.5, with a final reaction volume of 25 µL. The previous published norovirus NNI NIC02 was used as a positive control. RdRps were incubated for 10 mins at 30 °C in the presence of the test compounds or the compound vehicle DMSO (0.5% vol/vol) before addition into the reaction mixture, which was then allowed to run 15 min at 30 °C then terminated with 10 mM EDTA, followed by PicoGreen staining and dsRNA quantitation. GraphPad Prism V6.05 (La Jolla, CA, USA) was used to plot the IC50 values. In cases where fluorescent enhancement was recorded for a compound instead of inhibition, a secondary gel-based polymerase activity assay was used as a counter-screen as described below, to exclude the possibility of RdRp activity enhancement (Supplementary Fig. S1). Primed elongation activity was examined in a gel-based assay as previously described[16],[63] using the RNA template (PE44-NoV, Fig. 4D). Gels were imaged using BioRad (Hercules, CA, U.SA) Geldoc Universal Hood II, running BioRad Image Lab software, V4.1, build 16. Antagonism was calculated using Compusyn software V1.0[59]. 54 and PPNDS (4:1 ratio) were tested alone and together against norovirus Sydney 2012 RdRp.

RHDV RdRp = assay: Fluorescent RdRp activity assay, RHDV RdRp; assay type: biochemical, rabbit haemorrhagic disease virus; conditions: fixed concentration of 100 µM
Source text: The antiviral activity of the four compounds (11, 13, 42a and 54) were examined for inhibition of RNA polymerases from other viruses spanning three genera of the Caliciviridae family, including Norovirus (human norovirus and MNV), Lagovirus (rabbit haemorrhagic disease virus [RHDV]) and Sapovirus (human sapovirus). […] The protein sequence of the examined calicivirus polymerases has an identity range between 30.2–61.4%, and therefore the broad-spectrum activity of these compounds could be attributed to a common, highly-conserved binding pocket across the RdRps, as has been previously reported with broad-spectrum activity of other site-B binding NNIs[16]. […]
(§2) Fluorescent RdRp activity assays were carried out as previously described[14],[62]. Briefly, RdRp activity was quantified by monitoring the formation of double-stranded RNA (dsRNA) from a single stranded homopolymeric template, poly(C) (Sigma Aldrich, St Louis, MO, USA), using the fluorescent dye PicoGreen (Life Technologies, Carlsbad, CA, USA). […] RdRps were incubated for 10 mins at 30 °C in the presence of the test compounds or the compound vehicle DMSO (0.5% vol/vol) before addition into the reaction mixture, which was then allowed to run 15 min at 30 °C then terminated with 10 mM EDTA, followed by PicoGreen staining and dsRNA quantitation. […] Antagonism was calculated using Compusyn software V1.0[59]. […]

norovirus RdRp = assay: Counter-screen gel-shift RdRp assay (primed elongation of PE44-NoV template); assay type: biochemical, human norovirus; conditions: fixed concentration of 100 µM
Experimental: In this assay, a 32 nucleotide RNA template (PE44-NoV) is extended to 44 nucleotides in the presence of an active RdRp[16]. […] Inhibition of primed elongation of the PE44-NoV template was examined at a fixed concentration of 100 µM (Fig. 4D). In the absence of inhibition (0.5% DMSO vehicle only) the RNA template was extended to 44 nucleotides (Fig. 4D), evidenced by an upward gel shift and the appearance of the second, higher band.
as §1

Q414A norovirus RdRp = molecular target: T1, Q414A norovirus RdRp (Norovirus GII.4 (Norwalk virus, human norovirus), UniProt K4L8Z7, Q1603A); assay: Fluorescent RdRp assay, Q414A mutant RdRp; assay type: biochemical; conditions: 0.1–100 µM
T1 sequence (K4L8Z7 1190-1699 Q1603A): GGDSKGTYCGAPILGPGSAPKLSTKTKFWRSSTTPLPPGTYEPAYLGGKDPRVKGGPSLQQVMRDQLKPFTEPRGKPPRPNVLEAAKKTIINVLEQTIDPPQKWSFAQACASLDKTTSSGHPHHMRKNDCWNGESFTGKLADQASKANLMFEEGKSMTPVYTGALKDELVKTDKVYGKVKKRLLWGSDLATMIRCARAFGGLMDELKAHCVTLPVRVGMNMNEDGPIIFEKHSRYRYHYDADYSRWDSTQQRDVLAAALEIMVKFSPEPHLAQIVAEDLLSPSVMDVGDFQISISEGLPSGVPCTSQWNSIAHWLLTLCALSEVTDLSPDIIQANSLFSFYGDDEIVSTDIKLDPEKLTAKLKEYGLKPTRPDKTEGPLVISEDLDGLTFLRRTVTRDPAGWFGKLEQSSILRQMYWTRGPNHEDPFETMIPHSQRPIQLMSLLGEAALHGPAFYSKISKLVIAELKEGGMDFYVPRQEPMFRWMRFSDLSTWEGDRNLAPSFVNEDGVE
Source text: Given the evidence of 54 being a site-B binding NNI, residues Q414 and R419 were mutated to alanine. These residues were previously shown by our research group and others to be critical for human norovirus RdRp site-B binding NNIs, and can create resistance to the drug through their mutagenesis[16],[17],[39]. After the mutant RdRps’ transcriptional activity was confirmed in a fluorescent RdRp assay (Q414A: 54%, R419A: 34% of wild-type activity, respectively), dose-response curves for 54 (0.1–100 µM) were produced to compare the IC50 values between the wild-type RdRp and the two mutant RdRps, Q414A and R419A (Fig. 13B). […]
as §2

O=C1NN(c2ccccc2)C(=O)/C1=C/c1ccc(-c2ccc(S(=O)(=O)Nc3ccccc3)cc2)o1 [Compound 54] was tested, and the IC50 [1] was 5.6 µM, the “inhibition of RHDV RdRp activity” value (RHDV RdRp) was 99.0% and the “inhibition of primed elongation activity (gel-shift)” value (norovirus RdRp) was “near complete abolishment of norovirus RdRp activity”. For the same compound, the IC50 (Q414A norovirus RdRp) was 7.8 µM.
